Measurements: patent US10821115B2, “Compounds that inhibit Mcl-1 protein” (priority 2017, dated 2020)
Read-outs that look alike come from different tables or passages of the source.

Experiments:
[1] = target: recombinant human Mcl-1 (residues 171-327) / Bim interaction (Homo sapiens (Human), UniProt Q07820); assay: biochemical; type: binding; conditions: read-out: Mcl-1 HTRF IC50
[2] = test system: OPM-2 Luc cells; assay: OPM-2 xenograft efficacy model; type: in vivo; conditions: dosed orally to female athymic nude mice inoculated with OPM-2 Luc cells
Description: Example 1 was dosed orally to female athymic nude mice inoculated with OPM-2 Luc cells.

[3] = test system: OPM-2 Luc cells; assay: tumor PD model (OPM-2 Luc); type: in vivo; conditions: dosed orally to female athymic nude mice inoculated with OPM-2 Luc cells; compared with Reference Compound 1
Description: Both compounds were dosed orally to female athymic nude mice inoculated with OPM-2 Luc cells.

[4] = test system: human multiple myeloma cell line, OPM-2; assay: Cell viability assay (OPM-2 10 FBS), CellTiter-Glo; type: cell-based
Method in brief: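 IC50 values come from 4-parameter logistic fits of luminescence signals reflecting cell viability. Treatment lasted 16 h at 37 °C in complete medium with 10% FBS, starting from 3000 cells/well.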

[5] = 0.1 nM Mcl-1(171-327), 0.05 nM biotin-Bim (51-76)
[6] = read-out: OPM-2 10% FBS IC50 IP, OPM-2 cells, 10% FBS, 16 h incubation
[7] = TR-FRET, Mcl-1(171-327) / biotin-Bim (51-76)
[8] = Homo sapiens, OPM-2, 16 h, read-out: OPM-2 10% FBS IC50 IP, OPM-2 cells, 10% FBS, 16 h, CellTiter-Glo

Sequence of recombinant human Mcl-1 (residues 171-327) / Bim interaction (Q07820 171-327): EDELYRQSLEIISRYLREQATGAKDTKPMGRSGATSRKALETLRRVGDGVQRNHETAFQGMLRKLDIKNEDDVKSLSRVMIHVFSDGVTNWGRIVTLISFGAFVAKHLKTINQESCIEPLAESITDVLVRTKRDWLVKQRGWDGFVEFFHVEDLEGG

In the case of “(1 S,3′R,6′R,7′S,8′E,11′S, 12′R)-6-chloro-7′-((9aS)-hexahydropyrazino[2,1-c][1,4]oxazin-8(1H)-ylmethyl)-7′-methoxy-11′,12′-dimethyl-3,4-dihydro-2H, 15′H-spiro[naphthalene-1,22′-[20]oxa[13]thia[1,14,25]triazatetracyclo[14.7.2.0-3,6˜.0˜19,24˜]pentacosa[8,16,18,24]tetraen]-15′-one 13′,13′-dioxide [Example 18]”, the IC50 [1, 5] is reported as 0.06 nM, the “in vivo efficacy in an OPM-2 xenograft efficacy model” value [2] is reported as “in vivo efficacy” and the “in vivo efficacy relative to Reference Compound 1 in a tumor PD model” value [3] is reported as “superior in vivo efficacy”. It also gave an IC50 [4, 6] of 22 nM.

For `CCO[C@]1(CN2CCN3CCOC[C@@H]3C2)/C=C/C[C@H](C)[C@@H](C)S(=O)(=O)NC(=O)c2ccc3c(c2)N(C[C@@H]2CC[C@H]21)C[C@@]1(CCCc2cc(Cl)ccc21)CO3` [Example 1, (1 S,3′R,6′R,7′R,8′E, 11′S,12′R)-6-chloro-7′-ethoxy-7′-((9aS)-hexahydropyrazino[2,1-c][1,4]oxazin-8(1H)-ylmethyl)-11′,12′-dimethyl-3,4-dihydro-2H,15′H-spiro[naphthalene-1,22′-[20]oxa[13]thia[1,14]diazatetracyclo[14.7.2.0-3,6˜.0˜19,24˜]pentacosa[8,16,18,24]tetraen]-15′-one 13′,13′-dioxide], the IC50 [1, 5] was 0.086 nM, the “in vivo efficacy in an OPM-2 xenograft efficacy model” value [2] was “in vivo efficacy” and the “in vivo efficacy relative to Reference Compound 1 in a tumor PD model” value [3] was “superior in vivo efficacy”. The IC50 [4, 6] was 85 nM.

For `CO[C@]1(CN2CCN3CCCC[C@@H]3C2)/C=C/C[C@H](C)[C@@H](C)S(=O)(=O)NC(=O)c2ccc3c(c2)N(C[C@@H]2CC[C@H]21)C[C@@]1(CCCc2cc(Cl)ccc21)CO3` [Example 10, (1 S,3′R,6′R,7′R,8′E, 11′S,12′R)-6-CHLORO-7′-METHOXY-11′,12′-DIMETHYL-7′-((9AR)-OCTAHYDRO-2H-PYRIDO[1,2-A]PYRAZIN-2-YLMETHYL)-3,4-DIHYDRO-2H, 15′H-SPIRO [NAPHTHALENE-1,22′-[20]OXA[13]THIA[1,14]DIAZATETRACYCLO [14.7.2.0-3,6˜.0˜19,24˜]PENTACOSA[8,16,18,24]TETRAEN]-15′-ONE 13′,13′-DIOXIDE], the “in vivo efficacy in an OPM-2 xenograft efficacy model” value [2] was “in vivo efficacy” and the IC50 [4, 6] was 75 nM.

In the case of `CO[C@]1(CN2CCN(C3COC3)CC2)/C=C/C[C@H](C)[C@@H](C)S(=O)(=O)NC(=O)c2ccc3c(c2)N(C[C@@H]2CC[C@H]21)C[C@@]1(CCCc2cc(Cl)ccc21)CO3` [Example 3, (1 S,3′R,6′R,7′R,8′E,11′S,12′R)-6-chloro-7′-methoxy-11′,12′-dimethyl-7′-((4-(3-oxetanyl)-1-piperazinyl)methyl)-3,4-dihydro-2H, 15′H-spiro[naphthalene-1,22′-[20]oxa[13]thia[1,14]diazatetracyclo[14.7.2.0-3,6˜.0˜19,24˜]pentacosa[8,16,18,24]tetraen]-15′-one 13′,13′-dioxide], the IC50 [1, 5] is reported as 0.094 nM, the “in vivo efficacy relative to Reference Compound 1 in a tumor PD model” value [3] is reported as “superior in vivo efficacy” and the IC50 [4, 6] is reported as 60 nM.

With “(1 S,3′R,6′R,7′R,8′E,11′S,12′R)-6-chloro-7′-((9aS)-hexahydropyrazino[2,1-c][1,4]oxazin-8(1H)-ylmethyl)-7′-methoxy-12′-(2-methoxyethyl)-11′-methyl-3,4-dihydro-2H, 15′H-spiro[naphthalene-1,22′-[20]oxa[13]thia[1,14]diazatetracyclo[14.7.2.0-3,6˜.0˜19,24˜]pentacosa[8,16,18,24]tetraen]-15′-one 13′,13′-dioxide [Example 11]” the “in vivo efficacy in an OPM-2 xenograft efficacy model” value [2] was “in vivo efficacy” and the IC50 [4, 6] was 51 nM.

`Cc1onc(C[C@]2(O)/C=C/C[C@H](C)[C@@H](C)S(=O)(=O)NC(=O)c3ccc4c(c3)N(C[C@@H]3CC[C@H]32)C[C@@]2(CCCc3cc(Cl)ccc32)CO4)c1C` [Example 100578, (1S,3′R,6′R,7′S,8′E,11′S,12′R)-6-chloro-7′-((4,5-dimethyl-1,2-oxazol-3-yl)methyl)-7′-hydroxy-11′,12′-dimethyl-3,4-dihydro-2H,15′H-spiro[naphthalene-1,22′-[20]oxa[13]thia[1,14]diazatetracyclo [14.7.2.0~3,6~.0~19,24~]pentacosa[8,16,18,24]tetraen]-15′-one 13′,13′-dioxide] was tested, and the IC50 [1, 7] was 0.089 nM and the IC50 [4, 8] was 595 nM.

Molecule `CO[C@]1(CC(=O)N2CC[C@@H](N(C)C)C2)/C=C/C[C@H](C)[C@@H](C)S(=O)(=O)NC(=O)c2ccc3c(c2)N(C[C@@H]2CC[C@H]21)C[C@@]1(CCCc2cc(Cl)ccc21)CO3` [Example 100317, (1S,3′R,6′R,7′R,8′E,11′S,12′R)-6-chloro-7′-(2-((3R)-3-(dimethylamino)-1-pyrrolidinyl)-2-oxoethyl)-7′-methoxy-11′,12′-dimethyl-3,4-dihydro-2H,15′H-spiro[naphthalene-1,22′-[20]oxa[13]thia[1,14]diazatetracyclo [14.7.2.0~3,6~.0~19,24~]pentacosa[8,16,18,24]tetraen]-15′-one 13′,13′-dioxide] has an IC50 [1, 7] of 0.188 nM and an IC50 [4, 8] of 157 nM.

Molecule `C[C@@H]1[C@@H](C)C/C=C/[C@@](O)(C=O)[C@@H]2CC[C@H]2CN2C[C@@]3(CCCc4cc(Cl)ccc43)COc3ccc(cc32)C(=O)NS1(=O)=O` [Example 100291, (1S,3′R,6′R,7′S,8′E,11′S,12′R)-6-chloro-7′-hydroxy-11′,12′-dimethyl-15′-oxo-3,4-dihydro-2H-spiro[naphthalene-1,22′-[20]oxa[13]thia[1,14]diazatetracyclo [14.7.2.0~3,6~.0~19,24~]pentacosa[8,16,18,24]tetraene]-7′-carbaldehyde 13′,13′-dioxide] has an IC50 [1, 7] of 0.137 nM and an IC50 [4, 8] of 281 nM.

`CO[C@]1(CN2CCN3C(=O)OC[C@@H]3C2)/C=C/C[C@H](C)[C@@H](C)S(=O)(=O)NC(=O)c2ccc3c(c2)N(C[C@@H]2CC[C@H]21)C[C@@]1(CCCc2cc(Cl)ccc21)CO3` [Example 64, (1S,3′R,6′R,7′R,8′E,11′S,12′R)-6-chloro-7′-methoxy-11′,12′-dimethyl-7′-(((8aS)-3-oxotetrahydro[1,3]oxazolo[3,4-a]pyrazin-7(1H)-yl)methyl)-3,4-dihydro-2H,15′H-spiro[naphthalene-1,22′-[20]oxa[13]thia[1,14]diazatetracyclo [14.7.2.0~3,6~.0~19,24~]pentacosa[8,16,18,24]tetraen]-15′-one 13′,13′-dioxide] showed an IC50 [1, 5] of 0.126 nM and an IC50 ([4]; Homo sapiens, OPM-2, 16 h, read-out: OPM-2 10% FBS IC50 IP, OPM-2 cells, 10% FBS, 16 h incubation) of 201 nM.

`C[C@@H]1[C@@H](C)C/C=C/[C@@](O)(CS(C)(=O)=O)[C@@H]2CC[C@H]2CN2C[C@@]3(CCCc4cc(Cl)ccc43)COc3ccc(cc32)C(=O)NS1(=O)=O` [Example 100072, (1S,3′R,6′R,7′S,8′E,11′S,12′R)-6-chloro-7′-hydroxy-11′,12′-dimethyl-7′-((methylsulfonyl)methyl)-3,4-dihydro-2H,15′H-spiro[naphthalene-1,22′-[20]oxa[13]thia[1,14]diazatetracyclo [14.7.2.0~3,6~.0~19,24~]pentacosa[8,16,18,24]tetraen]-15′-one 13′,13′-dioxide] was tested, and the IC50 [1, 7] was 0.451 nM and the IC50 [4, 8] was 1720 nM.

With `C[C@@H]1[C@@H](C)CCC[C@](O)(c2ccccn2)[C@@H]2CC[C@H]2CN2C[C@@]3(CCCc4cc(Cl)ccc43)COc3ccc(cc32)C(=O)NS1(=O)=O` [Example 100469, (1S,3′R,6′R,7′R,11′S,12′R)-6-chloro-7′-hydroxy-11′,12′-dimethyl-7′-(2-pyridinyl)-3,4-dihydro-2H,15′H-spiro[naphthalene-1,22′-[20]oxa[13]thia[1,14]diazatetracyclo [14.7.2.0~3,6~.0~19,24~]pentacosa[16,18,24]trien]-15′-one 13′,13′-dioxide] the IC50 [1, 7] was 0.085 nM and the IC50 [4, 8] was 325 nM.

Work on `C[C@@H]1[C@@H](C)C/C=C/[C@@](O)(c2nc(CO)nn2C)[C@@H]2CC[C@H]2CN2C[C@@]3(CCCc4cc(Cl)ccc43)COc3ccc(cc32)C(=O)NS1(=O)=O` [Example 100200, (1S,3′R,6′R,7′S,8′E,11′S,12′R)-6-chloro-7′-hydroxy-7′-(3-(hydroxymethyl)-1-methyl-1H-1,2,4-triazol-5-yl)-11′,12′-dimethyl-3,4-dihydro-2H,15′H-spiro[naphthalene-1,22′-[20]oxa[13]thia[1,14]diazatetracyclo [14.7.2.0~3,6~.0~19,24~]pentacosa[8,16,18,24]tetraen]-15′-one 13′,13′-dioxide] yielded an IC50 [1, 7] of 0.213 nM and an IC50 [4, 8] of 1070 nM.

With “(1S,3′R,6′R,7′R,8′E, 11′S,12′R)-6-chloro-12′-(2-hydroxyethyl)-7′-methoxy-11′-methyl-7′-((9aR)-octahydro-2H-pyrido[1,2-a]pyrazin-2-ylmethyl)-3,4-dihydro-2H, 15′H-spiro[naphthalene-1,22′-[20]oxa[13]thia[1,14]diazatetracyclo[14.7.2.0-3,6˜.0˜19,24˜]pentacosa[8,16,18,24]tetraen]-15′-one 13′,13′-dioxide [Example 358]” the IC50 [1, 5] was 0.066 nM and the IC50 [4, 6] was 144 nM.

Work on `CO[C@@]1(C[C@@H](O)C2CC2)/C=C/C[C@H](C)[C@@H](C)S(=O)(=O)NC(=O)c2ccc3c(c2)N(C[C@@H]2CC[C@H]21)C[C@@]1(CCCc2cc(Cl)ccc21)CO3` (racemic) [Example 100437, (1S,3′R,6′R,7′S,8′E,11′S,12′R)-6-chloro-7′-((2R)-2-cyclopropyl-2-hydroxyethyl)-7′-methoxy-11′,12′-dimethyl-3,4-dihydro-2H,15′H-spiro[naphthalene-1,22′-[20]oxa[13]thia[1,14]diazatetracyclo [14.7.2.0~3,6~.0~19,24~]pentacosa[8,16,18,24]tetraen]-15′-one 13′,13′-dioxide] yielded an IC50 [1, 7] of 0.073 nM and an IC50 [4, 8] of 531 nM.
